Source: ChEMBL document CHEMBL1143693, “Cancer chemopreventive effects of cycloartane-type and related triterpenoids in in vitro and in vivo models” (J Nat Prod, 2007)

Test system: Human gammaherpesvirus 4
Experiment: Inhibition of TPA-induced Epstein-Barr virus early antigen activation assessed as EBV-EA induction in Raji cells at 32 nM after 48 hrs relative to TPA; values are per cent of control
Conditions: human gammaherpesvirus 4, Raji

Structure (SMILES) | level, % of control at 0.032 µM [%]
CC(=O)O[C@@H]1CC[C@]23C[C@]24CC[C@]2(C)[C@@H]([C@H](C)CCC=C(C)C)CC[C@@]2(C)[C@@H]4CC[C@H]3C1(C)C | 33.2
CC(C)CCC[C@@H](C)C1=CC[C@@]2(C)[C@@H]3CC[C@H]4C(C)(C)[C@@H](O)CC[C@@]45C[C@@]35CC[C@]12C | 32.1
C=C(C)[C@@H](C)CC[C@@H](C)[C@H]1CC[C@@]2(C)[C@@H]3CC[C@H]4[C@@H](C)C(=O)CC[C@@]45C[C@@]35CC[C@]12C | 32.4
C=C(CC[C@@H](C)[C@H]1CC[C@@]2(C)[C@@H]3CC[C@H]4[C@H](C)[C@@H](OC(C)=O)CC[C@@]45C[C@@]35CC[C@]12C)C(C)C [CYCLOEUCALENOL ACETATE] | 32.4
C=C(CC[C@@H](C)[C@H]1CC[C@@]2(C)[C@@H]3CC[C@H]4C(C)(C)[C@@H](O)CC[C@@]45C[C@@]35CC[C@]12C)C(C)C | 23.2
C=C(CC[C@@H](C)[C@H]1CC[C@@]2(C)[C@@H]3CC[C@H]4C[C@@H](O)CC[C@@]45C[C@@]35CC[C@]12C)C(C)C | 30.5

Test system: Human gammaherpesvirus 4
Experiment: Inhibition of TPA-induced Epstein-Barr virus early antigen activation assessed as EBV-EA induction in Raji cells at 320 nM after 48 hrs relative to TPA; values are per cent of control
Conditions: human gammaherpesvirus 4, Raji

Structure (SMILES) | level, % of control at 0.32 µM [%]
CC(=O)O[C@@H]1CC[C@]23C[C@]24CC[C@]2(C)[C@@H]([C@H](C)CCC=C(C)C)CC[C@@]2(C)[C@@H]4CC[C@H]3C1(C)C | 0
CC(C)CCC[C@@H](C)C1=CC[C@@]2(C)[C@@H]3CC[C@H]4C(C)(C)[C@@H](O)CC[C@@]45C[C@@]35CC[C@]12C | 0
C=C(C)[C@@H](C)CC[C@@H](C)[C@H]1CC[C@@]2(C)[C@@H]3CC[C@H]4[C@@H](C)C(=O)CC[C@@]45C[C@@]35CC[C@]12C | 0
C=C(CC[C@@H](C)[C@H]1CC[C@@]2(C)[C@@H]3CC[C@H]4[C@H](C)[C@@H](OC(C)=O)CC[C@@]45C[C@@]35CC[C@]12C)C(C)C [CYCLOEUCALENOL ACETATE] | 0
C=C(CC[C@@H](C)[C@H]1CC[C@@]2(C)[C@@H]3CC[C@H]4C(C)(C)[C@@H](O)CC[C@@]45C[C@@]35CC[C@]12C)C(C)C | 0
C=C(CC[C@@H](C)[C@H]1CC[C@@]2(C)[C@@H]3CC[C@H]4C[C@@H](O)CC[C@@]45C[C@@]35CC[C@]12C)C(C)C | 0

Test system: not listed separately
Experiment: Scavenging activity against NO generation in human Chang liver cells assessed as inhibition of NOR1-activation at 350 nM relative to NOR1
Format: functional
Conditions: not given

Structure (SMILES) | Activity
CC(=O)O[C@@H]1CC[C@]23C[C@]24CC[C@]2(C)[C@@H]([C@H](C)CCC=C(C)C)CC[C@@]2(C)[C@@H]4CC[C@H]3C1(C)C | 1.6
CC(C)CCC[C@@H](C)C1=CC[C@@]2(C)[C@@H]3CC[C@H]4C(C)(C)[C@@H](O)CC[C@@]45C[C@@]35CC[C@]12C | 1.6
C=C(C)[C@@H](C)CC[C@@H](C)[C@H]1CC[C@@]2(C)[C@@H]3CC[C@H]4[C@@H](C)C(=O)CC[C@@]45C[C@@]35CC[C@]12C | 1.8
C=C(CC[C@@H](C)[C@H]1CC[C@@]2(C)[C@@H]3CC[C@H]4[C@H](C)[C@@H](OC(C)=O)CC[C@@]45C[C@@]35CC[C@]12C)C(C)C [CYCLOEUCALENOL ACETATE] | 1.5
C=C(CC[C@@H](C)[C@H]1CC[C@@]2(C)[C@@H]3CC[C@H]4C(C)(C)[C@@H](O)CC[C@@]45C[C@@]35CC[C@]12C)C(C)C | 1.7
C=C(CC[C@@H](C)[C@H]1CC[C@@]2(C)[C@@H]3CC[C@H]4C[C@@H](O)CC[C@@]45C[C@@]35CC[C@]12C)C(C)C | 1.5

Test system: Human gammaherpesvirus 4
Experiment: Inhibition of TPA-induced Epstein-Barr virus early antigen activation assessed as EBV-EA induction in Raji cells at 0.32 nM after 48 hrs relative to TPA; values are per cent of control
Conditions: human gammaherpesvirus 4, Raji

Structure (SMILES) | level, % of control at 0.00032 µM [%]
CC(=O)O[C@@H]1CC[C@]23C[C@]24CC[C@]2(C)[C@@H]([C@H](C)CCC=C(C)C)CC[C@@]2(C)[C@@H]4CC[C@H]3C1(C)C | 96
CC(C)CCC[C@@H](C)C1=CC[C@@]2(C)[C@@H]3CC[C@H]4C(C)(C)[C@@H](O)CC[C@@]45C[C@@]35CC[C@]12C | 96.5
C=C(C)[C@@H](C)CC[C@@H](C)[C@H]1CC[C@@]2(C)[C@@H]3CC[C@H]4[C@@H](C)C(=O)CC[C@@]45C[C@@]35CC[C@]12C | 94.6
C=C(CC[C@@H](C)[C@H]1CC[C@@]2(C)[C@@H]3CC[C@H]4[C@H](C)[C@@H](OC(C)=O)CC[C@@]45C[C@@]35CC[C@]12C)C(C)C [CYCLOEUCALENOL ACETATE] | 96.2
C=C(CC[C@@H](C)[C@H]1CC[C@@]2(C)[C@@H]3CC[C@H]4C(C)(C)[C@@H](O)CC[C@@]45C[C@@]35CC[C@]12C)C(C)C | 91.4
C=C(CC[C@@H](C)[C@H]1CC[C@@]2(C)[C@@H]3CC[C@H]4C[C@@H](O)CC[C@@]45C[C@@]35CC[C@]12C)C(C)C | 95.8

Test system: Raji
Experiment: Cell viability of Raji cells at 320 nM
Format: functional, Homo sapiens
Conditions: not given

Structure (SMILES) | Activity [%]
CC(=O)O[C@@H]1CC[C@]23C[C@]24CC[C@]2(C)[C@@H]([C@H](C)CCC=C(C)C)CC[C@@]2(C)[C@@H]4CC[C@H]3C1(C)C | 70
CC(C)CCC[C@@H](C)C1=CC[C@@]2(C)[C@@H]3CC[C@H]4C(C)(C)[C@@H](O)CC[C@@]45C[C@@]35CC[C@]12C | 70
C=C(C)[C@@H](C)CC[C@@H](C)[C@H]1CC[C@@]2(C)[C@@H]3CC[C@H]4[C@@H](C)C(=O)CC[C@@]45C[C@@]35CC[C@]12C | 70
C=C(CC[C@@H](C)[C@H]1CC[C@@]2(C)[C@@H]3CC[C@H]4[C@H](C)[C@@H](OC(C)=O)CC[C@@]45C[C@@]35CC[C@]12C)C(C)C [CYCLOEUCALENOL ACETATE] | 70
C=C(CC[C@@H](C)[C@H]1CC[C@@]2(C)[C@@H]3CC[C@H]4C(C)(C)[C@@H](O)CC[C@@]45C[C@@]35CC[C@]12C)C(C)C | 70
C=C(CC[C@@H](C)[C@H]1CC[C@@]2(C)[C@@H]3CC[C@H]4C[C@@H](O)CC[C@@]45C[C@@]35CC[C@]12C)C(C)C | 70

Test system: Human gammaherpesvirus 4
Experiment: Inhibition of TPA-induced Epstein-Barr virus early antigen activation assessed as EBV-EA induction in Raji cells at 3.2 nM after 48 hrs relative to TPA; values are per cent of control
Conditions: human gammaherpesvirus 4, Raji

Structure (SMILES) | level, % of control at 0.0032 µM [%]
CC(=O)O[C@@H]1CC[C@]23C[C@]24CC[C@]2(C)[C@@H]([C@H](C)CCC=C(C)C)CC[C@@]2(C)[C@@H]4CC[C@H]3C1(C)C | 73.1
CC(C)CCC[C@@H](C)C1=CC[C@@]2(C)[C@@H]3CC[C@H]4C(C)(C)[C@@H](O)CC[C@@]45C[C@@]35CC[C@]12C | 72.6
C=C(C)[C@@H](C)CC[C@@H](C)[C@H]1CC[C@@]2(C)[C@@H]3CC[C@H]4[C@@H](C)C(=O)CC[C@@]45C[C@@]35CC[C@]12C | 72.7
C=C(CC[C@@H](C)[C@H]1CC[C@@]2(C)[C@@H]3CC[C@H]4[C@H](C)[C@@H](OC(C)=O)CC[C@@]45C[C@@]35CC[C@]12C)C(C)C [CYCLOEUCALENOL ACETATE] | 73.5
C=C(CC[C@@H](C)[C@H]1CC[C@@]2(C)[C@@H]3CC[C@H]4C(C)(C)[C@@H](O)CC[C@@]45C[C@@]35CC[C@]12C)C(C)C | 68.1
C=C(CC[C@@H](C)[C@H]1CC[C@@]2(C)[C@@H]3CC[C@H]4C[C@@H](O)CC[C@@]45C[C@@]35CC[C@]12C)C(C)C | 72.7

Test system: Human gammaherpesvirus 4
Experiment: Inhibition of TPA-induced Epstein-Barr virus early antigen activation in Raji cells after 48 hrs
Format: functional, organism-based
Conditions: human gammaherpesvirus 4, Raji

Structure (SMILES) | IC50 [nM]
CC(=O)O[C@@H]1CC[C@]23C[C@]24CC[C@]2(C)[C@@H]([C@H](C)CCC=C(C)C)CC[C@@]2(C)[C@@H]4CC[C@H]3C1(C)C | 10.2
CC(C)CCC[C@@H](C)C1=CC[C@@]2(C)[C@@H]3CC[C@H]4C(C)(C)[C@@H](O)CC[C@@]45C[C@@]35CC[C@]12C | 10.1
C=C(C)[C@@H](C)CC[C@@H](C)[C@H]1CC[C@@]2(C)[C@@H]3CC[C@H]4[C@@H](C)C(=O)CC[C@@]45C[C@@]35CC[C@]12C | 9.9
C=C(CC[C@@H](C)[C@H]1CC[C@@]2(C)[C@@H]3CC[C@H]4[C@H](C)[C@@H](OC(C)=O)CC[C@@]45C[C@@]35CC[C@]12C)C(C)C [CYCLOEUCALENOL ACETATE] | 10.1
C=C(CC[C@@H](C)[C@H]1CC[C@@]2(C)[C@@H]3CC[C@H]4C(C)(C)[C@@H](O)CC[C@@]45C[C@@]35CC[C@]12C)C(C)C | 8.8
C=C(CC[C@@H](C)[C@H]1CC[C@@]2(C)[C@@H]3CC[C@H]4C[C@@H](O)CC[C@@]45C[C@@]35CC[C@]12C)C(C)C | 9.5
